Measurements as given in ChEMBL document CHEMBL6134907, “Synthesis of 5,9- and 5,8-Diaminoalkoxy Substituted Benzophenanthridinone Analogues as Tyrosyl-DNA Phosphodiesterase 1 Inhibitors and Their Radiosensitizing Activity” (J Med Chem, 2025).
Activity calls are given as the source filed them. The rule behind the calls is not given here.

How the values were obtained:
[1] = Tmax in male Sprague-Dawley rat at 5 mg/kg, IG measured up to 24 hrs by LCMS-MS analysis; type: ADME, organism-based; settings: in vivo, po
[2] = system: HGC-27; experiment: Radiosensitizing activity in human HGC-27 cells assessed as sensitization of 2 GY ionizing radiation induced decrease in cell survival by colony formation assay; type: functional, cell-based
[3] = Induction of 4GY ionizing radiation (IR) induced cell cycle arrest in human HCT-116 cells assessed as accumulation of cells at G0/G1 phase at 5 uM measured after 24 hrs by Propidium iodide (PI) staining based assay (reference value: 65.99%); type: functional
[4] = Induction of 4GY ionizing radiation (IR) induced cell cycle arrest in human HCT-116 cells assessed as accumulation of cells at G2/M phase at 10 uM measured after 24 hrs by Propidium iodide (PI) staining based assay (reference value: 20.51%); type: functional
[5] = system: HCT-116; experiment: Downregulation of cell cycle pathway in human HCT-116 cells at 5 uM measured after 24 hrs by KEGG analysis; type: functional, cell-based
[6] = system: HCT-116; experiment: Induction of PIG3 expression in human HCT-116 cells xenografted BALB/c mouse tumor at 5 to 10 mg/kg, ip every day for 14 days by immunohistochemical analysis; type: functional, organism-based; settings: dose 5-10 mg/kg, time 14.0 day
[7] = system: HeLa; experiment: Radiosensitizing activity in human HeLa cells assessed as sensitization of 2 GY ionizing radiation induced decrease in cell survival by colony formation assay; type: functional, cell-based
[8] = system: HCT-116; experiment: Effect on Ku70/80 expression in wild type human HCT-116 cells assessed as change in protein level at 5 to 10 uM radiated with 4 GY ionizing radiation (IR) measured after 24 hrs by Western blot analysis; type: functional, cell-based; settings: dose 5-10 µM
[9] = system: HCT-116; experiment: Synergistic cytotoxicity against human HCT116 cells assessed as combination index at 1 uM incubated for 48 hrs in presence of 2GY ionizing radiation (IR); type: functional
[10] = system: HCT-116; experiment: Effect on Ku70/80 expression in wild type human HCT-116 cells assessed as change in mRNA level at 5 to 10 uM measured after 24 hrs by qRT-PCR analysis; type: functional, cell-based; settings: dose 5-10 µM
[11] = system: Tyrosyl-DNA phosphodiesterase 1/Deoxyribonucleic acid; experiment: Stabilization of TDP1/DNA complex in human HCT-116 cells at 100 uM ionizing radiation with 4 GY by Cellular Thermal Shift Assay (CETSA); type: cell-based
[12] = system: HCT-116; experiment: Induction of 4GY ionizing radiation (IR) induced apoptosis in human HCT-116 cells assessed as viable cells at 10 uM measured after 24 hrs by FITC Annexin V/PI apoptosis detection assay (reference value: 66.88%); type: functional; settings: read-out: Activity
[13] = system: HCT-116; experiment: Effect on Lig4 expression in wild type human HCT-116 cells assessed as change in mRNA level at 5 to 10 uM measured after 24 hrs by qRT-PCR analysis; type: functional, cell-based; settings: dose 5-10 µM
[14] = Toxicity in BALB/c mouse xenografted with human HCT-116 cells assessed as change in lung weight at 1 to 10 mg/kg, ip every day for 14 days radiated for every 2 days once; type: organism-based; settings: in vivo, 336 h, dose 1-10 mg/kg, time 14 day
[15] = system: HCT-116; experiment: Induction of 4GY ionizing radiation (IR) induced ROS production in human HCT-116 cells assessed as mitochondrial dysfunction by measuring mitochondrial membrane potential loss at 10 uM measured after 24 hrs by flow cytometry; type: functional, cell-based
[16] = system: HCT-116; experiment: Induction of 4GY ionizing radiation (IR) induced apoptosis in human HCT-116 cells assessed as early apoptotic cells at 10 uM measured after 24 hrs by FITC Annexin V/PI apoptosis detection assay (reference value: 17.50%); type: functional
[17] = Cmax in male Sprague-Dawley rat at 5 mg/kg, IG measured up to 24 hrs by LCMS-MS analysis; type: ADME, organism-based; settings: in vivo, po
[18] = system: HCT-116; experiment: Effect on Ku70/80 expression in wild type human HCT-116 cells assessed as change in mRNA level at 5 to 10 uM radiated with 4 GY ionizing radiation (IR) measured after 24 hrs by qRT-PCR analysis; type: functional, cell-based; settings: dose 5-10 µM
[19] = system: HCT-116; experiment: Induction of ROS generation in human HCT-116 cells assessed as fold increase in intracellular ROS level at 5 uM under 4GY ionizing radiation (IR) measured after 20 mins by ELIASA analysis; type: functional
[20] = system: HCT-116; experiment: Induction of cell cycle arrest in human HCT-116 cells assessed as accumulation of cells at S phase at 5 uM measured after 24 hrs by Propidium iodide (PI) staining based assay (reference value: 13.96%); type: functional
[21] = system: HCT-116; experiment: Induction of PIG3 transcription level in human HCT-116 cells measured after 24 hrs treated with 4 GY ionizing radiation (IR); type: functional, cell-based; settings: dose 5-10 µM
[22] = system: HCT-116; experiment: Induction of ionizing radiation (IR) induced gamma-H2AX foci in human HCT-116 cells at 5 uM measured after 3 hrs by immunofluorescence assay; type: functional, cell-based
[23] = Toxicity in BALB/c mouse xenografted with human HCT-116 cells assessed as change in lung weight at 1 to 10 mg/kg, ip every day for 14 days; type: organism-based; settings: in vivo, 336 h, dose 1-10 mg/kg, time 14 day
[24] = system: HCT-116; experiment: Effect on Lig4 expression in wild type human HCT-116 cells assessed as change in mRNA level at 5 to 10 uM radiated with 4 GY ionizing radiation (IR) measured after 24 hrs by qRT-PCR analysis; type: functional, cell-based; settings: dose 5-10 µM
[25] = system: HCT-116; experiment: Induction of apoptosis in human HCT-116 cells assessed as viable cells at 10 uM measured after 24 hrs by FITC Annexin V/PI apoptosis detection assay (reference value: 99.71%); type: functional; settings: read-out: Activity
[26] = system: HCT-116; experiment: Induction of apoptosis in human HCT-116 cells assessed as early apoptotic cells at 5 uM measured after 24 hrs by FITC Annexin V/PI apoptosis detection assay (reference value: 0.26%); type: functional
[27] = Acute toxicity in Kunming mouse assessed as survival at 150 to 600 mg/kg, ip single dose measured after 7 days; type: organism-based; settings: in vivo, 168 h, dose 150-600 mg/kg, time 7 day
[28] = Toxicity in BALB/c mouse xenografted with human HCT-116 cells assessed as change in kidney weight at 1 to 10 mg/kg, ip every day for 14 days radiated for every 2 days once; type: organism-based; settings: in vivo, 336 h, dose 1-10 mg/kg, time 14 day
[29] = system: HCT-116; experiment: Anti-tumor activity against human HCT-116 cells xenografted in BALB/c mouse assessed as tumor growth inhibition at 1 mg/kg, ip every day for 14 days; type: functional, organism-based; settings: time 14.0 day
[30] = system: HCT-116; experiment: Induction of ROS generation in human HCT-116 cells assessed as intracellular ROS level at 10 uM under 4GY ionizing radiation (IR) measured after 20 mins by flow cytometry (reference value: 7.2%); type: functional
[31] = system: HCT-116; experiment: Upregulation of p53 signaling pathway in human HCT-116 cells at 5 uM measured after 24 hrs by KEGG analysis; type: functional, cell-based
[32] = system: RKO; experiment: Synergistic cytotoxicity against human RKO cells assessed as combination index at 5 uM incubated for 48 hrs in presence of 2GY ionizing radiation (IR); type: functional
[33] = Induction of 4GY ionizing radiation (IR) induced cell cycle arrest in human HCT-116 cells assessed as accumulation of cells at S phase at 5 uM measured after 24 hrs by Propidium iodide (PI) staining based assay (reference value: 11.48%); type: functional
[34] = Half life in male Sprague-Dawley rat at 1 mg/kg, iv measured up to 24 hrs by LCMS-MS analysis; type: ADME, organism-based; settings: in vivo

In the case of COc1cc2c(=O)n(CCN(C)C)c3c4cc5c(cc4ccc3c2cc1OCCN1CCOCC1)OCO5, the Tmax [1] is reported as 4 h, the Activity [2] is reported as “inactive” and the Activity [3] is reported as 44.18%. For the same compound, the Activity [4] was 68.1%, the Activity [5] was “Active” and the Activity [6] was “Active”. The Activity [7] was “inactive”, the Activity [8] was “inactive” and the Activity [9] was 28%. The Activity [10] was “inactive”, the Activity [11] was “Active; Coincubation With Ionizing Radiation Showed Greater Complex Formation” and the viability at 10 µM [12] was 55.5%. For the same compound, the Activity [13] was “inactive”, the Activity [14] was “Non-toxic” and the Activity [15] was “Active”. The Activity [16] was 19.85%, the Cmax [17] was 70.3 ng/mL and the Activity [18] was “inactive”. For the same compound, the “fold change (FC)” value [19] was 1.7, the Activity [20] was 10.9% and the Activity [21] was “Dose-dependent-effect”. For the same compound, the Activity [22] was “Active”, the Activity [23] was “Non-toxic” and the Activity [24] was “inactive”. For the same compound, the viability at 10 µM [25] was 72.1%, the Activity [26] was 14.89% and the Activity [27] was “Non-toxic”. For the same compound, the Activity [28] was “Non-toxic”, the TGI [29] was “inactive” and the Activity [30] was 27.6%. For the same compound, the Activity [31] was “Active”, the CI [32] was under 0.3 and the Activity [33] was 11.88%. For the same compound, the half-life [34] was 2.86 h.
